Laboratory results published in publication PMC10279527, “Structural basis of metabolite transport by the chloroplast outer envelope channel OEP21” (Nature Structural & Molecular Biology, 2023).
Where “and” joins values, the source holds several entries; their conditions need not be identical. Identical values can stand only once. Like-named read-outs stand apart in the source and are kept apart here. Blank lines part the entries; values can stand above or below the compound they belong to.

How the values were obtained:
OEP21 wt [1] = molecular target: T1, OEP21 wt (Pisum sativum, UniProt Q9SM57); assay: SEC metabolite translocation assay with OEP21 WT proteoliposomes;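 for all read-outs here: control is liposomes reconstituted without protein, prepared alongside. Molecule content inside liposomes measured after Triton X-100 disruption. PD10 SEC runs done with or without ATP and/or MgCl2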; type: biochemical, garden pea; settings: for Relative content (% of mean Control): Fig. 4f, WT proteoliposomes, molecules of increasing molecular weight; for passage through the OEP21 channel (in words): proteoliposomes, SEC, deadtime ~4 min
T1 construct: made in house

OEP21 wt [2] = molecular target: T1, OEP21 wt; assay: Fluorescence polarization (FP) binding of MANT-ATP (or MANT-GMPPNP) to OEP21-WT, also at varied NaCl and MgCl2; set-up: species or system garden pea; settings: FP
Experimental: (§1) FP assays were performed on a spectrofluorometer FP-8300 (Jasco) equipped with a water bath cooling system MCM-100 (Jasco). […] A buffer containing no EDTA was used when MgCl2 was present. […] KD values were derived by fitting the data to a one-site binding model. […] All FP experiments were performed as triplicates.

[3] = system: OEP21 variants (single point mutations, ΔL5); assay: Fluorescence polarization binding of MANT-ATP to OEP21 variants;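 note: KD obtained by fitting fluorescence polarization data to a one-site binding model, each experiment run in triplicate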; set-up: species or system garden pea; settings: FP with MANT-ATP, Fig. 3e; 14 point variants and ΔL5
[4] = ITC of ATP, GAP or phosphate with magnesium; type: binding; settings: 10 mM HEPES pH7.0, 20 mM NaCl, read-out: KD for Mg^2+
Experimental: ITC experiments were performed with a MicroCal PEAQ-ITC instrument (Malvern Panalytical) at 25 °C in 10 mM HEPES pH 7.0, 20 mM NaCl, 0.5 mM EDTA, 1 mM DTT, 50 mM LDAO. […] Curve fitting and data analysis were done with the Malvern PEAQ-ITC software.
(a) (left) 2D-[^15N,^1H]-TROSY NMR spectra of 400 µM ^2H,^15N-labeled OmpX in LDAO micelles in 20 mM sodium phosphate, pH6.0, 50 mM NaCl, 0.5 mM EDTA and the indicated concentrations of D-GAP at 30 °C and 1.2 GHz magnetic field. (right) 2D-projections along the ^1H dimension of the 2D-spectra shown on (left). […] (right) Relative NMR peak intensities derived from the data in (left) and (middle). Buffer: 10 mM Na-phosphate pH7.0, 20 mM NaCl, 7% (v/v) D2O. […] (right) 150 mM MgCl2 was titrated into 15 mM potassium phosphate (Pi). Buffer conditions for all experiments were: 10 mM HEPES pH7.0, 20 mM NaCl.

OEP21 [5] = molecular target: T2, OEP21 (Pisum sativum, UniProt Q9SM57); assay: CD-detected thermal melting of OEP21 in presence of metabolites; type: binding, garden pea; set-up: made in house; settings: for raw CD / rel CD: 500 uM; for Melting point: ED Fig. 4a, OEP21 with 0.5 mM metabolite, CD at 215 nm, Apo 58.5
OEP21 [6] = molecular target: T2, OEP21; assay: Isothermal titration calorimetry (ITC) of OEP21 with metabolites; type: binding, garden pea; set-up: made in house; settings: for fold increase in Kd: individual determination KD1; for fold increase in Kd / fold increase in Kd, mean values: relative to ATP pH7; for binding affinity for OEP21 (in words): ITC or FP
OEP21 [7] = molecular target: T2, OEP21; assay: Trypsin cleavage of recombinant OEP21 in liposomes; set-up: made in house; species or system garden pea; settings: 10 µM OEP21 in liposomes; 5 mM metabolite
Experimental: Sample aliquots were quenched by addition of 1 mM PMSF at the indicated time points and were analyzed by SDS–PAGE.

OEP21 [8] = molecular target: T2, OEP21; assay: Amide hydrogen exchange NMR (CLEANEX) of OEP21 L5; set-up: made in house; species or system garden pea; settings: 2 mM ATP or 5 mM GAP; 303 K, pH 6.0
OEP21 wt [9] = molecular target: T1, OEP21 wt; assay: NMR titrations (2D-[15N,1H]-TROSY) of OEP21 with metabolites; type: binding, garden pea
OEP21 wt [10] = molecular target: T1, OEP21 wt; assay: FP competition with preformed MANT-ATP/OEP21-WT complex; type: binding, garden pea; settings: read-out: IC50 (dissociation of MANT-ATP); OEP21-WT; 1 µM MANT-ATP, 1 µM protein
Experimental: as §1

Compound: O=S1(=O)OC(c2cc(Br)c(O)c(Br)c2)(c2cc(Br)c(O)c(Br)c2)c2ccccc21 [Bromophenol Blue, reference compound]
- Relative content (% of mean Control) (OEP21 wt [1]; Mean): 44.3038 % of mean Control
- Relative content (% of mean Control) (OEP21 wt [1]; single replicates): 45.5696 % of mean Control and 43.6709 % of mean Control (2×)
- passage through the OEP21 channel (in words) (OEP21 wt [1]): lower translocation efficiency

Compound: Nc1ncnc2c1ncn2C1OC(COP(=O)(O)OP(=O)(O)OP(=O)(O)O)C(O)C1O (centres unmarked) [ATP]
- decrease in affinity (OEP21 wt [2]; 50 mM MgCl2 versus 0): ~50 fold
- drop in binding affinity (OEP21 wt [2]; 2 M NaCl versus 0): ~120 fold
- deviation of KD of OEP21 variants from the wild-type value [3]: ≤ 50%
- Kd [4]: 0.05 mM and 0.054 mM
- passage through the OEP21 channel (in words) (OEP21 wt [1]): passed through the channel
- raw CD (OEP21 [5]; 21 °C): -26.3487
- raw CD (OEP21 [5]; 58 °C): -23.5155
- raw CD (OEP21 [5]; 63 °C): -19.1017
- raw CD (OEP21 [5]; 66 °C): -5.813
- rel CD (OEP21 [5]; 66 °C): 0.1482
- rel CD (OEP21 [5]; 68 °C): 0.08235
- raw CD (OEP21 [5]; 69 °C): -3.142
- raw CD (OEP21 [5]; 70 °C): -4.096
- raw CD (OEP21 [5]; 71 °C): -2.84
- raw CD (OEP21 [5]; 71.5 °C): -3.658
- raw CD (OEP21 [5]; 74 °C): -2.072
- rel CD (OEP21 [5]; 76 °C): 0.01626
- raw CD (OEP21 [5]; 77 °C): -2.742
- rel CD (OEP21 [5]; 77 °C): 0.01867
- raw CD (OEP21 [5]; 79 °C): -1.936
- raw CD (OEP21 [5]; 79.5 °C): -2.866
- raw CD (OEP21 [5]; 80 °C): -3
- raw CD (OEP21 [5]; 82 °C): -1.776
- rel CD (OEP21 [5]; 82 °C): -0.02212
- raw CD (OEP21 [5]; 83.5 °C): -1.529
- raw CD (OEP21 [5]; 84 °C): -3.442
- rel CD (OEP21 [5]; 87 °C): -0.01175
- rel CD (OEP21 [5]; 87.5 °C): 0.006103
- rel CD (OEP21 [5]; 88 °C): 0.001624
- raw CD (OEP21 [5]; 88.5 °C): -3.139
- rel CD (OEP21 [5]; 90 °C): -0.0159
- rel CD (OEP21 [5]; 90.5 °C): -0.01305
- rel CD (OEP21 [5]; 92 °C): 0.001685
- rel CD (OEP21 [5]; 93 °C): -0.01165
- raw CD (OEP21 [5]; 95 °C): -2.644
- rel CD (OEP21 [5]; 97 °C): -0.003556
- raw CD (OEP21 [5]; 98 °C): -2.053
- raw CD (OEP21 [5]; 100 °C): -2.629
- Melting point (OEP21 [5]): 63.08 ｡C
- binding stoichiometry n (OEP21 [6]; ITC, Fig. 3a): 1.14 ± 0.16
- effect on trypsin digestion of L5 (in words) (OEP21 [7]): slightly protected L5 from proteolytic digestion
- amide hydrogen exchange rates in L5 in the complex (in words) (OEP21 [8]): reduced

Compound: Cc1cc2nc3c(=O)[nH]c(=O)nc-3n(C[C@H](O)[C@H](O)[C@H](O)COP(=O)(O)OP(=O)(O)OC[C@H]3O[C@@H](n4cnc5c(N)ncnc54)[C@H](O)[C@@H]3O)c2cc1C [FAD]
- Relative content (% of mean Control) (OEP21 wt [1]; Mean): 46.1734 % of mean Control
- Relative content (% of mean Control) (OEP21 wt [1]; single replicates): 47.6939 % of mean Control and 45.5112 % of mean Control and 45.315 % of mean Control

Compound: O=C(O)[C@H](O)COP(=O)(O)O [3PGA]
- Melting point (OEP21 [5]): 58.78 ｡C

Compound: Nc1nc2c(ncn2[C@@H]2O[C@H](COP(=O)(O)OP(=O)(O)OP(=O)(O)O)[C@@H](O)[C@H]2O)c(=O)[nH]1 [GTP]
- Melting point (OEP21 [5]): 66.48 ｡C
- fold increase in Kd (OEP21 [6]): 0.59
- fold increase in Kd, mean values (OEP21 [6]): 0.59

Compound: Nc1ccn([C@@H]2O[C@H](COP(=O)(O)OP(=O)(O)OP(=O)(O)O)[C@@H](O)[C@H]2O)c(=O)n1 [CTP]
- Melting point (OEP21 [5]): 63.71 ｡C
- fold increase in Kd (OEP21 [6]): 1.35
- fold increase in Kd, mean values (OEP21 [6]): 1.35

Compound: Nc1ncnc2c1ncn2[C@@H]1O[C@H](COP(=O)(O)OP(=O)(O)O)[C@@H](O)[C@H]1O [ADP]
- Melting point (OEP21 [5]): 59.2 ｡C
- binding affinity for OEP21 (in words) (OEP21 [6]; Fig. 3c): markedly reduced
- fold increase in Kd (OEP21 [6]): 10.8
- fold increase in Kd, mean values (OEP21 [6]): 10.8

Compound: Nc1ncnc2c1ncn2[C@@H]1O[C@H](COP(=O)(O)O)[C@@H](O)[C@H]1O [AMP]
- Melting point (OEP21 [5]): 59.12 ｡C
- binding affinity for OEP21 (in words) (OEP21 [6]; Fig. 3c): no binding could be detected
- Fold increase in KD (OEP21 [6]; Fig. 3c, n.b. = no binding could be detected by ITC): n.b.
- fold increase in Kd, mean values (OEP21 [6]): 0

The next lines start with results.

- Melting point (OEP21 [5]): 58.37 ｡C
Compound: C=C(OP(=O)(O)O)C(=O)O [PEP]

- Melting point (OEP21 [5]): 63.58 ｡C
- fold increase in Kd (OEP21 [6]): 2.55
- fold increase in Kd, mean values (OEP21 [6]): 2.55
Compound: O=c1ccn([C@@H]2O[C@H](COP(=O)(O)OP(=O)(O)OP(=O)(O)O)[C@@H](O)[C@H]2O)c(=O)[nH]1 [UTP]

- passage through the OEP21 channel (in words) (OEP21 wt [1]): cannot pass
Compound: lysozyme: the ~14-kDa protein lysozyme [reference compound]

- Relative content (% of mean Control) (OEP21 wt [1]; Mean): 30.937 % of mean Control
- Melting point (OEP21 [5]): 60.17 ｡C
Compound: NC(=O)C1=CN([C@@H]2O[C@H](COP(=O)(O)OP(=O)(O)OC[C@H]3O[C@@H](n4cnc5c(N)ncnc54)[C@H](OP(=O)(O)O)[C@@H]3O)[C@@H](O)[C@H]2O)C=CC1 [NADPH]
- Relative content (% of mean Control) (OEP21 wt [1]; single replicates): 31.31 % of mean Control and 32.4982 % of mean Control and 29.0027 % of mean Control

- Relative content (% of mean Control) (OEP21 wt [1]; Mean): 99.2057 % of mean Control
- passage through the OEP21 channel (in words) (OEP21 wt [1]): cannot pass
Compound: Vitamin B12
- Relative content (% of mean Control) (OEP21 wt [1]; single replicates): 105.56 % of mean Control and 96.0286 % of mean Control (2×)

- Kd (OEP21 wt [9]; individual determinations KD1-KD12, read-out: Kd): 8.73 mM and 3.66 mM and 15 mM and 9.02 mM and 8.71 mM and 10.4 mM and 5.02 mM and 3.5 mM and 11 mM and 15.9 mM and 20.7 mM and 4.68 mM
- Kd (OEP21 wt [9]; mean, read-out: Kd, mean values): 9.7 mM
- IC50 (OEP21 wt [10]): ~10 mM
- Kd ([4]; listed as Pi): 9 ± 1 mM
- Kd [4]: ~9 mM
- Relative content (% of mean Control) (OEP21 wt [1]; Mean): 13.1637 % of mean Control
Compound: O=P(O)(O)O [Phosphate]
- Relative content (% of mean Control) (OEP21 wt [1]; single replicates): 11.8165 % of mean Control and 12.9577 % of mean Control and 14.7171 % of mean Control

- Relative content (% of mean Control) (OEP21 wt [1]; Mean): 33.6575 % of mean Control
- Melting point (OEP21 [5]): 58.83 ｡C
Compound: NC(=O)C1=CN([C@@H]2O[C@H](COP(=O)(O)OP(=O)(O)OC[C@H]3O[C@@H](n4cnc5c(N)ncnc54)[C@H](O)[C@@H]3O)[C@@H](O)[C@H]2O)C=CC1 [NADH]
- Relative content (% of mean Control) (OEP21 wt [1]; single replicates): 33.3345 % of mean Control and 33.6928 % of mean Control and 33.9453 % of mean Control
